# Test results as given in patent US10562887B2, “Triazolones and tetrazolones as inhibitors of ROCK” (BRISTOL-MYERS SQUIBB COMPANY, priority 2016, dated 2020).
# Biological target: ROCK2 (Homo sapiens (Human), UniProt O75116)
# Test: ROCK2 assay (peptide phosphorylation, LABCHIP 3000 Reader)
# Type: biochemical
# Conditions: 5 μM ATP, 1.5 μM peptide substrate
# Protocol: The effectiveness of compounds of the present invention as ROCK inhibitors can be determined in a 30 μL, assay containing 20 mM HEPES, pH 7.5, 20 mM MgCl2, 0.015% Brij-35, 4 mM DTT, 5 μM ATP and 1.5 μM peptide substrate (FITC-AHA-AKRRRLSSLRA-OH). Compounds were dissolved in DMSO so that the final concentration of DMSO was <2%, and the reaction was initiated with Rho kinase variants. After incubation, the reaction was terminated by the addition of EDTA and the phosphorylated and non-phosphorylated peptides separated using a LABCHIP® 3000 Reader (Caliper Life Sciences). […] Compounds were tested in dose-response format, and the inhibition of kinase activity was calculated at each concentration of compound. The inhibition data were fit using a curve-fitting program to determine the IC50; i.e., the concentration of compound required to inhibit 50% of kinase activity.
# Representative Examples were tested in the ROCK2 assay described above and found having ROCK2 inhibitory activity.
# Sequence of ROCK2 (O75116 whole entry, species assumed): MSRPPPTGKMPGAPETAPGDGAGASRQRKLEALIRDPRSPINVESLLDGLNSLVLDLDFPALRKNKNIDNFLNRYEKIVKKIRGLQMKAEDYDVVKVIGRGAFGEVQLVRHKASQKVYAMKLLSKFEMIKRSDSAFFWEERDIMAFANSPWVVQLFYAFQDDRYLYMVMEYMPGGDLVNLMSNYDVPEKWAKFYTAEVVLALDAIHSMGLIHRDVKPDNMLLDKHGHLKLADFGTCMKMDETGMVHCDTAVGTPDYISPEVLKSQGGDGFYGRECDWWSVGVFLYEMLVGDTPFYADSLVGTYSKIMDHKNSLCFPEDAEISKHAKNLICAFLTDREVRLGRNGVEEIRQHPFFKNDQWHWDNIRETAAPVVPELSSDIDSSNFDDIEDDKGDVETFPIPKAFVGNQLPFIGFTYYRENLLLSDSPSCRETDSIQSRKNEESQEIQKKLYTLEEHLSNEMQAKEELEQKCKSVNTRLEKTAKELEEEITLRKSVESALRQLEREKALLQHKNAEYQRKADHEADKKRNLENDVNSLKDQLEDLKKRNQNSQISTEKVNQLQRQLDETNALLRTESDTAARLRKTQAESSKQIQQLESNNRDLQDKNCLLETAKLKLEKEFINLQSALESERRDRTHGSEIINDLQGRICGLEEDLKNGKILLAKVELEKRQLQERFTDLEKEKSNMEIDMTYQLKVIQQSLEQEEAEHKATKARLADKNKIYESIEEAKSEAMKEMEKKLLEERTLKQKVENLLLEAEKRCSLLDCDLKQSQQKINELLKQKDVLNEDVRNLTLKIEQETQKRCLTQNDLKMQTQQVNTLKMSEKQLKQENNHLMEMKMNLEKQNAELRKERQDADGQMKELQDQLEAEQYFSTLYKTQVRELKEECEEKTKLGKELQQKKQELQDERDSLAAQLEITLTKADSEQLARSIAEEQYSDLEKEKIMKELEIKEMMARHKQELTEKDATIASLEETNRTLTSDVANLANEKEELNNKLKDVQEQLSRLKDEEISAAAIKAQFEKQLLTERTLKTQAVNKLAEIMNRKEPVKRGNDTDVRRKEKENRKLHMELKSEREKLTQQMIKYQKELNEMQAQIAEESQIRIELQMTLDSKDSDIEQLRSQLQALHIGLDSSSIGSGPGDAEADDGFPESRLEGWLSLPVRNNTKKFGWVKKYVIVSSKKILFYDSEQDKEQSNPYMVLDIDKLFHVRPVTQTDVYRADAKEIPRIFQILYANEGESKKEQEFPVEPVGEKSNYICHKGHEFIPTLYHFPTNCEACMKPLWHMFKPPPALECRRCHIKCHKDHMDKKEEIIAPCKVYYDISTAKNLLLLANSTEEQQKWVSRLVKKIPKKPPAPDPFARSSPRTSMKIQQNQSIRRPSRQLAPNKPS
structure (smiles),measurement,value
"COc1cc(-n2nc(C)n(Cc3ccccc3F)c2=O)ccc1-c1cn[nH]c1 [Example 95, 4-(2-fluorobenzyl)-1-(3-methoxy-4-(1H-pyrazol-4-yl)phenyl)-3-methyl-1H-1,2,4-triazol-5(4H)-one]",IC50,5 to 50 nM
"O=c1n(Cc2cc(F)ccc2F)nnn1-c1ccc(-c2cn[nH]c2)cc1 [Example 174, 1-(4-(1H-pyrazol-4-yl)phenyl)-4-(2,5-difluorobenzyl)-1H-tetrazol-5(4H)-one]",IC50,50 to 250 nM
"O=c1n(-c2ccc(-c3cn[nH]c3)cc2)nc(CO)n1Cc1cc(F)cc(F)c1 [Example 130, 1-(4-(1H-pyrazol-4-yl)phenyl)-4-(3,5-difluorobenzyl)-3-(hydroxymethyl)-1H-1,2,4-triazol-5(4H)-one]",IC50,5 to 50 nM
"COc1cccc(Cn2c(CO)nn(-c3ccc(-c4cn[nH]c4)cc3)c2=O)c1F [Example 160, 1-(4-(1H-pyrazol-4-yl)phenyl)-4-(2-fluoro-3-methoxybenzyl)-3-(hydroxymethyl)-1H-1,2,4-triazol-5(4H)-one]",IC50,250 to 2000 nM
"COc1ccc(F)cc1Cn1c(CO)nn(-c2ccc(-c3cn[nH]c3)cc2)c1=O [Example 157, 1-(4-(1H-pyrazol-4-yl)phenyl)-4-(5-fluoro-2-methoxybenzyl)-3-(hydroxymethyl)-1H-1,2,4-triazol-5(4H)-one]",IC50,50 to 250 nM
"COc1cccc(Cn2nc(C)n(-c3ccc(-c4cn[nH]c4)cc3)c2=O)c1 [Example 69, 4-(4-(1H-pyrazol-4-yl)phenyl)-1-(3-methoxybenzyl)-3-methyl-1H-1,2,4-triazol-5(4H)-one]",IC50,250 to 2000 nM
"COc1cc(-n2nnn(Cc3ccc(F)cc3)c2=O)ccc1-c1cn[nH]c1 [Example 186, 1-(4-fluorobenzyl)-4-(3-methoxy-4-(1H-pyrazol-4-yl)phenyl)-1H-tetrazol-5(4H)-one]",IC50,250 to 2000 nM
"COc1cc(F)cc(Cn2c(C)nn(-c3ccc(-c4cn[nH]c4)c(OC)c3)c2=O)c1 [Example 92, 4-(3-fluoro-5-methoxybenzyl)-1-(3-methoxy-4-(1H-pyrazol-4-yl)phenyl)-3-methyl-1H-1,2,4-triazol-5(4H)-one]",IC50,< 5 nM
"CCc1cc(-n2ncn(Cc3cccc(F)c3)c2=O)ccc1-c1cn[nH]c1 [Example 55, 1-(3-ethyl-4-(1H-pyrazol-4-yl)phenyl)-4-(3-fluorobenzyl)-1H-1,2,4-triazol-5(4H)-one]",IC50,5 to 50 nM
"COc1cc(F)cc(Cn2nc(C)n(-c3ccc(-c4cn[nH]c4)cc3OC)c2=O)c1 [Example 76, 1-(3-fluoro-5-methoxybenzyl)-4-(2-methoxy-4-(1H-pyrazol-4-yl)phenyl)-3-methyl-1H-1,2,4-triazol-5(4H)-one]",IC50,250 to 2000 nM
"COc1cc(-n2nc(C)n(Cc3ccccc3)c2=O)ccc1-c1cn[nH]c1 [Example 88, 4-benzyl-1-(3-methoxy-4-(1H-pyrazol-4-yl)phenyl)-3-methyl-1H-1,2,4-triazol-5(4H)-one]",IC50,< 5 nM
"COc1ccc(Cn2c(C)nn(-c3ccc(-c4cn[nH]c4)cc3)c2=O)cc1F [Example 124, 1-(4-(1H-pyrazol-4-yl)phenyl)-4-(3-fluoro-4-methoxybenzyl)-3-methyl-1H-1,2,4-triazol-5(4H)-one]",IC50,250 to 2000 nM
"O=c1n(Cc2cccc(F)c2)cnn1-c1ccc(-c2cn[nH]c2)cc1 [Example 19, 1-(4-(1H-pyrazol-4-yl)phenyl)-4-(3-fluorobenzyl)-1H-1,2,4-triazol-5(4H)-one]",IC50,< 5 nM
"CCc1cc(-n2nc(C)n(Cc3cccc(C#N)c3)c2=O)ccc1-c1cn[nH]c1 [Example 111, 3-((1-(3-ethyl-4-(1H-pyrazol-4-yl)phenyl)-3-methyl-5-oxo-1H-1,2,4-triazol-4(5H)-yl)methyl)benzonitrile]",IC50,250 to 2000 nM
"Cc1nn(-c2ccc(-c3cn[nH]c3)cc2)c(=O)n1Cc1cccc(C#N)c1 [Example 103, 3-((1-(4-(1H-pyrazol-4-yl)phenyl)-3-methyl-5-oxo-1H-1,2,4-triazol-4(5H)-yl)methyl)benzonitrile]",IC50,250 to 2000 nM
"CCc1cc(-n2nc(C)n(Cc3cccc(OC(F)F)c3)c2=O)ccc1-c1cn[nH]c1 [Example 112, 4-(3-(difluoromethoxy)benzyl)-1-(3-ethyl-4-(1H-pyrazol-4-yl)phenyl)-3-methyl-1H-1,2,4-triazol-5(4H)-one]",IC50,50 to 250 nM
"COc1cc(Cn2cnn(-c3ccc(-c4cn[nH]c4)cc3)c2=O)cc(OC)c1 [Example 49, 1-(4-(1H-pyrazol-4-yl)phenyl)-4-(3,5-dimethoxybenzyl)-1H-1,2,4-triazol-5(4H)-one]",IC50,250 to 2000 nM
"CCc1cc(-n2nc(C)n(Cc3ccccc3F)c2=O)ccc1-c1cn[nH]c1 [Example 113, 1-(3-ethyl-4-(1H-pyrazol-4-yl)phenyl)-4-(2-fluorobenzyl)-3-methyl-1H-1,2,4-triazol-5(4H)-one]",IC50,50 to 250 nM
"COc1cccc(C(C)n2cnn(-c3ccc(-c4cn[nH]c4)cc3)c2=O)c1 (single isomer, unassigned) [Example 48, 1-(4-(1H-pyrazol-4-yl)phenyl)-4-(1-(3-methoxyphenyl)ethyl)-1H-1,2,4-triazol-5(4H)-one]",IC50,< 5 nM
"O=c1n(Cc2ccccc2Cl)cnn1-c1ccc(-c2cn[nH]c2)cc1 [Example 29, 1-(4-(1H-pyrazol-4-yl)phenyl)-4-(2-chlorobenzyl)-1H-1,2,4-triazol-5(4H)-one]",IC50,5 to 50 nM
"COc1cc(Cn2c(C(C)O)nn(-c3ccc(-c4cn[nH]c4)cc3)c2=O)cc(OC)c1 (single isomer, unassigned) [Example 147, 1-(4-(1H-pyrazol-4-yl)phenyl)-4-(3,5-dimethoxybenzyl)-3-(1-hydroxyethyl)-1H-1,2,4-triazol-5(4H)-one]",IC50,50 to 250 nM
"COc1cc(-c2cn[nH]c2)ccc1-n1c(C)nn(Cc2cc(F)ccc2F)c1=O [Example 78, 1-(2,5-difluorobenzyl)-4-(2-methoxy-4-(1H-pyrazol-4-yl)phenyl)-3-methyl-1H-1,2,4-triazol-5(4H)-one]",IC50,50 to 250 nM
"COc1cc(F)cc(Cn2c(CN3CCOCC3)nn(-c3ccc(-c4cn[nH]c4)cc3)c2=O)c1 [Example 149, 1-(4-(1H-pyrazol-4-yl)phenyl)-4-(3-fluoro-5-methoxybenzyl)-3-(morpholinomethyl)-1H-1,2,4-triazol-5(4H)-one]",IC50,5 to 50 nM
"COc1cc(-n2ncn(Cc3cccc(F)c3)c2=O)ccc1-c1cn[nH]c1 [Example 30, 4-(3-fluorobenzyl)-1-(3-methoxy-4-(1H-pyrazol-4-yl)phenyl)-1H-1,2,4-triazol-5(4H)-one]",IC50,< 5 nM
"COc1cccc(Cn2nc(C)n(-c3ccc(-c4cn[nH]c4)c(OC)c3)c2=O)c1 [Example 61, 4-(3-methoxy-4-(1H-pyrazol-4-yl)phenyl)-1-(3-methoxybenzyl)-3-methyl-1H-1,2,4-triazol-5(4H)-one]",IC50,50 to 250 nM
"COc1ccc(Cn2cnn(-c3ccc(-c4cn[nH]c4)cc3)c2=O)cc1F [Example 53, 1-(4-(1H-pyrazol-4-yl)phenyl)-4-(3-fluoro-4-methoxybenzyl)-1H-1,2,4-triazol-5(4H)-one]",IC50,250 to 2000 nM
"Cc1nn(-c2ccc(-c3cn[nH]c3)cc2)c(=O)n1Cc1cccc(F)c1 [Example 81, 1-(4-(1H-pyrazol-4-yl)phenyl)-4-(3-fluorobenzyl)-3-methyl-1H-1,2,4-triazol-5(4H)-one]",IC50,5 to 50 nM
"COc1cc(F)cc(Cn2nnn(-c3ccc(-c4cn[nH]c4)cc3)c2=O)c1 [Example 175, 1-(4-(1H-pyrazol-4-yl)phenyl)-4-(3-fluoro-5-methoxybenzyl)-1H-tetrazol-5(4H)-one]",IC50,5 to 50 nM
"CCc1cc(-n2ncn(Cc3ccccc3F)c2=O)ccc1-c1cn[nH]c1 [Example 42, 1-(3-ethyl-4-(1H-pyrazol-4-yl)phenyl)-4-(2-fluorobenzyl)-1H-1,2,4-triazol-5(4H)-one]",IC50,250 to 2000 nM
"COc1cc(Cn2c(CO)nn(-c3ccc(-c4cn[nH]c4)cc3)c2=O)cc(OC)c1 [Example 127, 1-(4-(1H-pyrazol-4-yl)phenyl)-4-(3,5-dimethoxybenzyl)-3-(hydroxymethyl)-1H-1,2,4-triazol-5(4H)-one]",IC50,50 to 250 nM
"COc1cc(Cn2c(C)nn(-c3ccc(-c4cn[nH]c4)cc3)c2=O)cc(OC)c1 [Example 120, 1-(4-(1H-pyrazol-4-yl)phenyl)-4-(3,5-dimethoxybenzyl)-3-methyl-1H-1,2,4-triazol-5(4H)-one]",IC50,250 to 2000 nM
"COc1cc(-n2nnn(Cc3ccccc3F)c2=O)ccc1-c1cn[nH]c1 [Example 183, 1-(2-fluorobenzyl)-4-(3-methoxy-4-(1H-pyrazol-4-yl)phenyl)-1H-tetrazol-5(4H)-one]",IC50,50 to 250 nM
"COc1cc(-n2nnn(Cc3c(F)cccc3F)c2=O)ccc1-c1cn[nH]c1 [Example 184, 1-(2,6-difluorobenzyl)-4-(3-methoxy-4-(1H-pyrazol-4-yl)phenyl)-1H-tetrazol-5(4H)-one]",IC50,50 to 250 nM
"CC(c1ccccc1)n1cnn(-c2ccc(-c3cn[nH]c3)cc2)c1=O (stereo not shown) [Example 22, 1-(4-(1H-pyrazol-4-yl)phenyl)-4-(1-phenylethyl)-1H-1,2,4-triazol-5(4H)-one]",IC50,< 5 nM
"COc1cc(-n2ncn(Cc3ccccc3Cl)c2=O)ccc1-c1cn[nH]c1 [Example 32, 4-(2-chlorobenzyl)-1-(3-methoxy-4-(1H-pyrazol-4-yl)phenyl)-1H-1,2,4-triazol-5(4H)-one]",IC50,5 to 50 nM
"COc1cc(-n2nc(C)n(C(C)c3ccccc3)c2=O)ccc1-c1cn[nH]c1 (stereo not shown) [Example 93, 1-(3-methoxy-4-(1H-pyrazol-4-yl)phenyl)-3-methyl-4-(1-phenylethyl)-1H-1,2,4-triazol-5(4H)-one]",IC50,5 to 50 nM
"COc1cc(-n2ncn(Cc3ccc(F)cc3)c2=O)ccc1-c1cn[nH]c1 [Example 38, 4-(4-fluorobenzyl)-1-(3-methoxy-4-(1H-pyrazol-4-yl)phenyl)-1H-1,2,4-triazol-5(4H)-one]",IC50,50 to 250 nM
